# According to patent US9738634B2, “Heterocyclic amide compound and herbicide” (SYNGENTA PARTICIPATIONS AG, priority 2013, dated 2017):
# Legend:
# Format in all cases: in vivo
# Settings in all cases: treatment dosage 320 g/ha
# beet [1] = test: Test Example 3: soil treatment, effect on crop; f: beet
# Summary of the method: (§1)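 Crop and weed responses were judged three weeks after a uniform surface spray of the water-diluted emulsion at the given g/ha rate. Seeds sat beneath about 1.5 cm of sterilized diluvial soil, and boxes stood in a greenhouse at 25 to 30° C.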
# barnyard grass [2] = test: Test Example 2: weedkilling efficacy, growth period weed treatment in the submerged state; A: barnyard grass
# Summary of the method: (§2)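 First, alluvial soil in pots is flooded to 4 cm and mixed seed is sown. Next, plants grow in a greenhouse at 25 to 30° C until the 1-2 leaf stage. Then diluted emulsion is applied onto the water surface at the given g/ha rate, and injury is assessed after 3 weeks.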
# common wind-grass [3] = test: Test Example 4: weedkilling efficacy by foliar treatment; J: common wind-grass
# Summary of the method: (§3)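 Seeds are spot-sown into sterilized diluvial soil and covered with about 1.5 cm of soil. After 14 days' greenhouse growth at 25 to 30° C, plants are sprayed on stems and leaves with diluted emulsion at the stated g/ha rate, then scored at 3 weeks.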
# redroot pigweed [4] = test: Test Example 4: weedkilling efficacy by foliar treatment; L: redroot pigweed
# Summary of the method: as §3
# Indian mallow [5] = test: Test Example 4: weedkilling efficacy by foliar treatment; K: Indian mallow
# Summary of the method: as §3
# bulrush [6] = test: Test Example 1: weedkilling efficacy, preemergent weed treatment in the submerged state; B: bulrush
# Summary of the method: (§4)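 Emulsion diluted with water to the specified per-hectare dosage is applied onto flood water (4 cm) over alluvial soil on the sowing day, with barnyard grass, bulrush and pondweed seeded and rice (2.5-leaf) transplanted; plants grow at 25–30 °C and are rated at 3 weeks.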
# barnyard grass [7] = test: Test Example 3: weedkilling efficacy through soil treatment; F: barnyard grass
# Summary of the method: as §1
# Indian mallow [8] = test: Test Example 3: weedkilling efficacy through soil treatment; K: Indian mallow
# Summary of the method: as §1
# fig-leafed goosefoot [9] = test: Test Example 3: weedkilling efficacy through soil treatment; M: fig-leafed goosefoot
# Summary of the method: as §1
# corn [10] = test: Test Example 4: foliar treatment, effect on crop; c: corn
# Summary of the method: as §3
# bulrush [11] = test: Test Example 2: weedkilling efficacy, growth period weed treatment in the submerged state; B: bulrush
# Summary of the method: as §2
# oval-leafed pondweed [12] = test: Test Example 2: weedkilling efficacy, growth period weed treatment in the submerged state; C: oval-leafed pondweed
# Summary of the method: as §2
# beet [13] = test: Test Example 4: foliar treatment, effect on crop; f: beet
# Summary of the method: as §3
# birds-eye speedwell [14] = test: Test Example 4: weedkilling efficacy by foliar treatment; p: birds-eye speedwell
# Summary of the method: as §3
# green foxtail [15] = test: Test Example 3: weedkilling efficacy through soil treatment; E: green foxtail
# Summary of the method: as §1
# wheat [16] = test: Test Example 4: foliar treatment, effect on crop; e: wheat
# Summary of the method: as §3
# rapeseed [17] = test: Test Example 3: soil treatment, effect on crop; g: rapeseed
# Summary of the method: as §1
# crabgrass [18] = test: Test Example 4: weedkilling efficacy by foliar treatment; D: crabgrass
# Summary of the method: as §3
# transplanted rice = test: Test Example 1: preemergent weed treatment in the submerged state, effect on crop; a: transplanted rice
# Summary of the method: as §4
# corn [19] = test: Test Example 3: soil treatment, effect on crop; c: corn
# Summary of the method: as §1
# birds-eye speedwell [20] = test: Test Example 3: weedkilling efficacy through soil treatment; p: birds-eye speedwell
# Summary of the method: as §1
# oval-leafed pondweed [21] = test: Test Example 1: weedkilling efficacy, preemergent weed treatment in the submerged state; C: oval-leafed pondweed
# Summary of the method: as §4
# directly sown rice [22] = test: Test Example 3: soil treatment, effect on crop; b: directly sown rice
# Summary of the method: as §1
# fig-leafed goosefoot [23] = test: Test Example 4: weedkilling efficacy by foliar treatment; M: fig-leafed goosefoot
# Summary of the method: as §3
# catchweed = test: Test Example 4: weedkilling efficacy by foliar treatment; O: catchweed
# Summary of the method: as §3
# barnyard grass [24] = test: Test Example 4: weedkilling efficacy by foliar treatment; F: barnyard grass
# Summary of the method: as §3
# wheat [25] = test: Test Example 3: soil treatment, effect on crop; e: wheat
# Summary of the method: as §1
# wild oat [26] = test: Test Example 4: weedkilling efficacy by foliar treatment; G: wild oat
# Summary of the method: as §3
# Italian ryegrass [27] = test: Test Example 4: weedkilling efficacy by foliar treatment; I: Italian ryegrass
# Summary of the method: as §3
# wild oat [28] = test: Test Example 3: weedkilling efficacy through soil treatment; G: wild oat
# Summary of the method: as §1
# soybean [29] = test: Test Example 3: soil treatment, effect on crop; d: soybean
# Summary of the method: as §1
# black-grass [30] = test: Test Example 3: weedkilling efficacy through soil treatment; H: black-grass
# Summary of the method: as §1
# redroot pigweed [31] = test: Test Example 3: weedkilling efficacy through soil treatment; L: redroot pigweed
# Summary of the method: as §1
# rapeseed [32] = test: Test Example 4: foliar treatment, effect on crop; g: rapeseed
# Summary of the method: as §3
# chickweed [33] = test: Test Example 4: weedkilling efficacy by foliar treatment; N: chickweed
# Summary of the method: as §3
# common wind-grass [34] = test: Test Example 3: weedkilling efficacy through soil treatment; J: common wind-grass
# Summary of the method: as §1
# soybean [35] = test: Test Example 4: foliar treatment, effect on crop; d: soybean
# Summary of the method: as §3
# black-grass [36] = test: Test Example 4: weedkilling efficacy by foliar treatment; H: black-grass
# Summary of the method: as §3
# directly sown rice [37] = test: Test Example 4: foliar treatment, effect on crop; b: directly sown rice
# Summary of the method: as §3
# Italian ryegrass [38] = test: Test Example 3: weedkilling efficacy through soil treatment; I: Italian ryegrass
# Summary of the method: as §1
# chickweed [39] = test: Test Example 3: weedkilling efficacy through soil treatment; N: chickweed
# Summary of the method: as §1
# green foxtail [40] = test: Test Example 4: weedkilling efficacy by foliar treatment; E: green foxtail
# Summary of the method: as §3
# barnyard grass [41] = test: Test Example 1: weedkilling efficacy, preemergent weed treatment in the submerged state; A: barnyard grass
# Summary of the method: as §4
# crabgrass [42] = test: Test Example 3: weedkilling efficacy through soil treatment; D: crabgrass
# Summary of the method: as §1
smiles,measurement,setting,value
COc1cc(F)nc(NC(=O)C(C)(C)N2COC(C)=C(c3ccccc3)C2=O)c1 [B-2-41],f (beet) effect on crop grade,beet [1],"3 (weed kill ratio 40% or more, less than 70%)"
same,A (barnyard grass) weedkilling efficacy grade,barnyard grass [2],"5 (weed kill ratio 90% or more, (practically complete withering))"
same,J (common wind-grass) weedkilling efficacy grade,common wind-grass [3],"5 (weed kill ratio 90% or more, (practically complete withering))"
same,L (redroot pigweed) weedkilling efficacy grade,redroot pigweed [4],"4 (weed kill ratio 70% or more, less than 90%)"
same,K (Indian mallow) weedkilling efficacy grade,Indian mallow [5],"5 (weed kill ratio 90% or more, (practically complete withering))"
same,B (bulrush) weedkilling efficacy grade,bulrush [6],"5 (weed kill ratio 90% or more, (practically complete withering))"
same,F (barnyard grass) weedkilling efficacy grade,barnyard grass [7],"5 (weed kill ratio 90% or more, (practically complete withering))"
same,K (Indian mallow) weedkilling efficacy grade,Indian mallow [8],"2 (weed kill ratio 20% or more, less than 40%)"
same,M (fig-leafed goosefoot) weedkilling efficacy grade,fig-leafed goosefoot [9],"4 (weed kill ratio 70% or more, less than 90%)"
same,c (corn) effect on crop grade,corn [10],"4 (weed kill ratio 70% or more, less than 90%)"
same,B (bulrush) weedkilling efficacy grade,bulrush [11],"5 (weed kill ratio 90% or more, (practically complete withering))"
same,C (oval-leafed pondweed) weedkilling efficacy grade,oval-leafed pondweed [12],"5 (weed kill ratio 90% or more, (practically complete withering))"
same,f (beet) effect on crop grade,beet [13],"4 (weed kill ratio 70% or more, less than 90%)"
same,P (birds-eye speedwell) weedkilling efficacy grade,birds-eye speedwell [14],"5 (weed kill ratio 90% or more, (practically complete withering))"
same,E (green foxtail) weedkilling efficacy grade,green foxtail [15],"5 (weed kill ratio 90% or more, (practically complete withering))"
same,e (wheat) effect on crop grade,wheat [16],0 (weed kill ratio 5% or less (practically no effect))
same,g (rapeseed) effect on crop grade,rapeseed [17],"4 (weed kill ratio 70% or more, less than 90%)"
same,D (crabgrass) weedkilling efficacy grade,crabgrass [18],"5 (weed kill ratio 90% or more, (practically complete withering))"
same,a (transplanted rice) effect on crop grade,transplanted rice,"3 (weed kill ratio 40% or more, less than 70%)"
same,c (corn) effect on crop grade,corn [19],0 (weed kill ratio 5% or less (practically no effect))
same,P (birds-eye speedwell) weedkilling efficacy grade,birds-eye speedwell [20],"5 (weed kill ratio 90% or more, (practically complete withering))"
same,C (oval-leafed pondweed) weedkilling efficacy grade,oval-leafed pondweed [21],"5 (weed kill ratio 90% or more, (practically complete withering))"
same,b (directly sown rice) effect on crop grade,directly sown rice [22],"4 (weed kill ratio 70% or more, less than 90%)"
same,M (fig-leafed goosefoot) weedkilling efficacy grade,fig-leafed goosefoot [23],"3 (weed kill ratio 40% or more, less than 70%)"
same,O (catchweed) weedkilling efficacy grade,catchweed,"5 (weed kill ratio 90% or more, (practically complete withering))"
same,F (barnyard grass) weedkilling efficacy grade,barnyard grass [24],"5 (weed kill ratio 90% or more, (practically complete withering))"
same,e (wheat) effect on crop grade,wheat [25],0 (weed kill ratio 5% or less (practically no effect))
same,G (wild oat) weedkilling efficacy grade,wild oat [26],"3 (weed kill ratio 40% or more, less than 70%)"
same,I (Italian ryegrass) weedkilling efficacy grade,Italian ryegrass [27],"5 (weed kill ratio 90% or more, (practically complete withering))"
same,G (wild oat) weedkilling efficacy grade,wild oat [28],"3 (weed kill ratio 40% or more, less than 70%)"
same,d (soybean) effect on crop grade,soybean [29],0 (weed kill ratio 5% or less (practically no effect))
same,H (black-grass) weedkilling efficacy grade,black-grass [30],"5 (weed kill ratio 90% or more, (practically complete withering))"
same,L (redroot pigweed) weedkilling efficacy grade,redroot pigweed [31],"3 (weed kill ratio 40% or more, less than 70%)"
same,g (rapeseed) effect on crop grade,rapeseed [32],"5 (weed kill ratio 90% or more, (practically complete withering))"
same,N (chickweed) weedkilling efficacy grade,chickweed [33],"4 (weed kill ratio 70% or more, less than 90%)"
same,J (common wind-grass) weedkilling efficacy grade,common wind-grass [34],"5 (weed kill ratio 90% or more, (practically complete withering))"
same,d (soybean) effect on crop grade,soybean [35],"4 (weed kill ratio 70% or more, less than 90%)"
same,H (black-grass) weedkilling efficacy grade,black-grass [36],"5 (weed kill ratio 90% or more, (practically complete withering))"
same,b (directly sown rice) effect on crop grade,directly sown rice [37],"4 (weed kill ratio 70% or more, less than 90%)"
same,I (Italian ryegrass) weedkilling efficacy grade,Italian ryegrass [38],"5 (weed kill ratio 90% or more, (practically complete withering))"
same,N (chickweed) weedkilling efficacy grade,chickweed [39],"4 (weed kill ratio 70% or more, less than 90%)"
same,E (green foxtail) weedkilling efficacy grade,green foxtail [40],"5 (weed kill ratio 90% or more, (practically complete withering))"
same,A (barnyard grass) weedkilling efficacy grade,barnyard grass [41],"5 (weed kill ratio 90% or more, (practically complete withering))"
same,D (crabgrass) weedkilling efficacy grade,crabgrass [42],"5 (weed kill ratio 90% or more, (practically complete withering))"
